Values of other authors, collected in patent publication US7781642B2, “Animal model having a chimeric human liver and susceptible to human hepatitis C virus infection” (KMT Hepatech, Inc., priority 2000, dated 2010).

How the values were obtained:
HBV = conditions: post needle-stick exposure; cited from earlier work
HCV = HCV patients; cited from earlier work

Substance	Cases in which transmission of HBV was prevented (HBV) [%]	Sustained response rate (HCV)
Hepatitis B Immunoglobulin [HBIg]	80	–
interferon and ribavirin	–	up to 40%
